Measured values taken from paper PMC7450057, “Enhancing intracellular accumulation and target engagement of PROTACs with reversible covalent chemistry” (Nature Communications, 2020).
Values joined by “and” are separate entries in the source; they are usually repeats but may differ in a detail not shown here. Equal values may be shown once. “Also recorded” adds a separate entry of the source.

Columns and labels:
wild-type BTK = target: T1, wild-type BTK (Homo sapiens, UniProt Q06187); assay: BTK degradation in XLA cells overexpressing wild-type BTK (western blot); type: cell-based; settings: 24 h
T1 construct: expressed in transfected cells; host or cells: XLA cells (gift from Dr. Woyach)
Experimental: XLA cells overexpressing wild-type BTK or mutant C481S BTK were plated at the same cell number and density as the above experiments and were treated with RC-1, IRC-1, or RNC-1 at the dose of 1.6, 8.0, 40, 200, and 1000 nM for 24 h. After completion of treatment, all the cells were collected and processed for western blot analysis.
(§1) The collected cells and spleen tissues were lysed in RIPA lysis buffer (50 mM Tris-HCl, pH 7.4, 150 mM NaCl, 1% NP-40, 0.5% sodium deoxycholate, 0.1% SDS) supplemented with Halt™ Protease and Phosphatase Inhibitor Cocktail (Thermo Fisher Scientific, Cat. No. PI78440) immediately before use. Lysates were centrifuged at 15,000 × g for 10 min at 4 °C and the supernatant was quantified for total protein concentration using the Pierce BCA Protein Assay (Thermo Fisher Scientific, Cat. No. 23225). Thirty micrograms of protein were loaded onto sodium dodecyl sulfate−polyacrylamide gel for electrophoresis (Bio-Rad) and transferred onto PVDF membranes (Millipore, Cat. No. IPVH00010). […] Imaging was performed using the ECL Prime chemiluminescent western blot detection reagents (GE Healthcare, Cat. No. RPN2232) by visualization of the blots to X-Ray film or with an Imager (Kindle Biosciences, Cat. No. D1001). All western blots were subsequently processed and quantified with Imager software. Protein level was normalized to β-actin or GAPDH loading controls.

p-BTK(Y233) = target: T2, p-BTK(Y233) (Mus musculus, UniProt P35991); assay: Splenic p-BTK(Y233) level in mice after single RC-1 injection (western blot); type: in vivo, ICR mice; settings: for p-BTK(Y223) level, mean: Figure 5d, DMSO = 100; for p-BTK(Y233) quantification: Supplementary Figure 8, individual animals
T2 construct: from tissue; host or cells: spleen of female ICR mice
Experimental: To investigate the protein degradation effect of RC-1 in vivo, mice were subjected to single RC-1 administration at the dose of 50 or 100 mg kg^−1 (i.p.) or seven once-daily RC-1 administration at the dose of 20 mg kg^−1 (i.p.) (n = 2–3). Twenty-four hours after the one-time RC-1 injection or 24 h after the 7th injection, mice were anesthetized with isoflurane and the whole spleen was dissected and stored at −80 °C for western blot analysis of protein level.
Supplementary Figure 8. Protein degradation by BTK PROTAC RC-1 in mouse spleen. ICR mice were subjected to single IP injection of RC-1 at the dose of 50 mg/kg (n = 4) or 100 mg/kg (n = 3) and spleens were harvested 24 h after injection. (a) The splenic p-BTK(Y233), BTK, IKZF1 and IKZF3 levels were measured with Western blot. (b). Quantification of protein levels shown in (a). Data are presented as mean values ± SEM.
Asterisks indicate that the differences between samples are statistically significant, using two-tailed, unpaired t- […]
test (* p < 0.05; significant).
(1 picture or pasted object on this page, not shown here)

[1] = tested on: BTK, pBTK, IKZF1, and IKZF3; assay: Degradation of BTK, pBTK, IKZF1 and IKZF3 in Mino cells (western blot); type: cell-based
Experimental: as §1

T2 sequence (P35991 whole entry): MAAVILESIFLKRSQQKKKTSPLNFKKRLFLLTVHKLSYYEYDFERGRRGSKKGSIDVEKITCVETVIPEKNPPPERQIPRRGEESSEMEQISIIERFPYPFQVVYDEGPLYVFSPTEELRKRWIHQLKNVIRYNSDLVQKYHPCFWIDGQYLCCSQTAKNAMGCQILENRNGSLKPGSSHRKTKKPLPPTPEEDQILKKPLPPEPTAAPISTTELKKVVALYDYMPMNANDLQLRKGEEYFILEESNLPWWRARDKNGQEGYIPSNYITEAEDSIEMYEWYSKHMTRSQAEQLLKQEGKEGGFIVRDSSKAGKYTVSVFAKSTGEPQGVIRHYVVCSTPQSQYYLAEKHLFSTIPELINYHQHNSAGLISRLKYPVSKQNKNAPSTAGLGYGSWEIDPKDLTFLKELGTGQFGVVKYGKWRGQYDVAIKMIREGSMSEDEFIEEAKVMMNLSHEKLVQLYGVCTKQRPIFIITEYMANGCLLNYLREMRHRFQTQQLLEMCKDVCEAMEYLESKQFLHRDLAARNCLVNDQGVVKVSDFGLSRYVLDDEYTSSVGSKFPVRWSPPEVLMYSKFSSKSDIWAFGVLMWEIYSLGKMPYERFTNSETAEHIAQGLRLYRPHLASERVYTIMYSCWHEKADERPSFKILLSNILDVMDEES
T1 sequence (Q06187 whole entry): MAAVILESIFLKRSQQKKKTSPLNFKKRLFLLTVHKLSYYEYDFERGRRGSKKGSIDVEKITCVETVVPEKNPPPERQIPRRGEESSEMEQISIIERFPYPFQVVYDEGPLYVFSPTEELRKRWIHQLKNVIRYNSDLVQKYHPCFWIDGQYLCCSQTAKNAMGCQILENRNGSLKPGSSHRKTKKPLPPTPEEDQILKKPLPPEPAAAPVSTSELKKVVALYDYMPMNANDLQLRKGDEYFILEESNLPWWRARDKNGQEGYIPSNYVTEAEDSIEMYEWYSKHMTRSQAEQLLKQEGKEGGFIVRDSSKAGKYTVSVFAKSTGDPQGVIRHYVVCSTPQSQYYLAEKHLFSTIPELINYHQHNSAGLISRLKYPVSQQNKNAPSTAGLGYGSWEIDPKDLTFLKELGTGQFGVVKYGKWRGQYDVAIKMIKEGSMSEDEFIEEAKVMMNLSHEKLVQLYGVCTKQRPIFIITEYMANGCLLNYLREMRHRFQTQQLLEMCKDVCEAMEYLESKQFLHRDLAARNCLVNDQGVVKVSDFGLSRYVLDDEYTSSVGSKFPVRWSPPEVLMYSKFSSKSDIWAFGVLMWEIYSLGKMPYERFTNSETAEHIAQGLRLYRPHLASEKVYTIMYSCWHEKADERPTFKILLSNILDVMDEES

**Q.** Which “BTK degradation (in words)” value (wild-type BTK) does the source give for `CN(CCCNC(=O)CNc1cccc2c1C(=O)N(C1CCC(=O)NC1=O)C2=O)C(C)(C)C=C(C#N)C(=O)N1CCC[C@@H](n2nc(-c3ccc(Oc4ccccc4)cc3)c3c(N)ncnc32)C1` (stereo partly drawn) [RC-1] here?
**A.** dose-dependent BTK degradation; also recorded: degrades both wild-type BTK and the C481S mutant with similar potency

**Q.** And the “p-BTK(Y223) level, mean” value (p-BTK(Y233); 1 injection)?
**A.** 96.2894

**Q.** What about the “p-BTK(Y223) level, mean” value (p-BTK(Y233); 7 injections) of the same compound?
**A.** 85.9605

**Q.** And the “p-BTK(Y233) quantification” value (p-BTK(Y233); RC-1 50 mg/kg, 50 mg/kg)?
**A.** 61.7244 and 50.2464 and 71.4895 and 26.7569

**Q.** What about the “p-BTK(Y233) quantification” value (p-BTK(Y233); RC-1 100 mg/kg, 100 mg/kg) of the same compound?
**A.** 42.1872 and 10.8062 and 16.7176

**Q.** What about the “degradation of BTK, pBTK, IKZF1, IKZF3 (in words)” value [1] of the same compound?
**A.** induced degradation of BTK, pBTK, IKZF1, and IKZF3; also recorded: can degrade not only BTK and phosphorylated BTK but also IKZF1 and IKZF3
